# According to patent publication US20210371459A1, “DIMERIC PEPTIDE INHIBITORS OF APOPTOSIS PROTEINS” (Hepagene Therapeutics (HK) Limited, priority 2017, published 2021):
# Assays:
# Details in all cases: FP, probe AbuRPFK-5FAM, 60 min at 25° C.
# XIAP-BIR3 = target: T1, XIAP-BIR3 (Homo sapiens, UniProt P98170); experiment: XIAP-BIR3 fluorescence polarization binding assay
# T1 construct: purchased Reaction Biology APT-11-374
# Description: (§1) IAPs are one main cause of cancer development and may result from overexpression of anti-apoptotic proteins. This protocol establishes three binding assays for XIAP Bir3 domain, cIAP1 and cIAP2 using FP (Fluorescence polarization) technology. The fluorescence probe used is a synthetic peptide conjugated to 5-carboxyfluorescein (AbuRPFK-5FAM). The fluorescence polarization value (mP) was detected by Envision, which was used to reflect the binding degree of protein and fluorescent marker. Reagents and equipment used in the assay are listed below, followed by the protocol.
# (§2) • a) Prepare 100 times of the final cpd concentration in appropriate tube and transfer 5 uL compound (“cpd”) to 45 μL 1× reaction buffer with 10% DMSO. • b) The final reference cpd concentration is 10000, 3333.3, 1111.1, 370.4, 123.4, 41.2, 13.7, 4.57, 1.52, 0.51, 0.17 and 0 nM. So the 100 times of the concentration is 1000, 333.3, 111.1, 37.04, 12.34, 4.12, […], 0.15, 0.05, 0.017 and 0 μM. The final test cpds concentration is 3333.3, 1111.1, 370.4, 123.4, 41.2, 13.7, 4.57, 1.52, 0.51, 0.17, 0.057 and 0 nM. So the 100 times of the concentration is 333.3, 111.1, 37.04, 12.34, 4.12, […], 0.15, 0.05, 0.017, 0.0057 and 0 μM • c) Add 8 μL/well each dose enzyme to 384 well microplate (ProxiPlate-384 F Plus, 6008260) using multichannel pipette, prepared in step 2.1.1.2 • d) Centrifuge at 1000 rpm. • e) Add 2 μL/well cpd to 384 well microplate (ProxiPlate-384 F Plus, 6008260) using multichannel pipette, prepared in step a). • f) Centrifuge at 1000 rpm. RT, 15 min. • g) Start the assay by adding 10 uL/well substrate (prepared in step 2.1.1.3) to the same 384 well microplate using multichannel pipette • h) Centrifuge at 1000 rpm. • i) Cover the assay plate and incubate for 60 min at 25° C. • j) Read on Envision 2104 for mP and plot the IC50s with mP values. • k) Data analysis: IC50s were determined based on a non-linear regression analysis of data collected.
# cIAP1-BIR3 = target: T2, cIAP1-BIR3 (Homo sapiens, UniProt Q13490); experiment: cIAP1-BIR3 fluorescence polarization binding assay
# T2 construct: cIAP1-BIR3; Reaction Biology; APT-11-370; purchased Reaction Biology APT-11-370
# T2 sequence (Q13490 253-363 limits assumed): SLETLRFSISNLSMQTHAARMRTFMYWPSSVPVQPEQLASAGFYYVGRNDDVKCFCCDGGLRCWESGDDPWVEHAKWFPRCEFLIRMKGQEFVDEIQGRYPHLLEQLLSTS
# Description: as §1, §2
# cIAP2-BIR3 = target: T3, cIAP2-BIR3 (Homo sapiens, UniProt Q13489); experiment: cIAP2-BIR3 fluorescence polarization binding assay
# T3 construct: cIAP2-BIR3; Reaction Biology; APT-11-372; purchased Reaction Biology APT-11-372
# T3 sequence (Q13489 238-349 limits assumed): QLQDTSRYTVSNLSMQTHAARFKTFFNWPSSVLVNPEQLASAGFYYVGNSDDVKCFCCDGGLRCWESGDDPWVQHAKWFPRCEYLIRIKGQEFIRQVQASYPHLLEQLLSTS
# Description: as §1, §2
# T1 sequence (P98170 241-356 limits assumed): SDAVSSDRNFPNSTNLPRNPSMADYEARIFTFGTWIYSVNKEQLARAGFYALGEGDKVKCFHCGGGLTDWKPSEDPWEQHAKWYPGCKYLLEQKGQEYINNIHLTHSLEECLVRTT
SMILES,IC50 (XIAP-BIR3),IC50 (cIAP1-BIR3),IC50 (cIAP2-BIR3)
"CN[C@@H](C)C(=O)N[C@H](C(=O)N1CCC[C@H]1C(=O)N[C@@H]1CCCc2c1cccc2N1CCN(c2cccc3c2CCC[C@H]3NC(=O)[C@@H]2CCCN2C(=O)[C@@H](NC(=O)[C@H](C)NC)C2CCCCC2)CC1)C1CCCCC1 [Compound I, (2S)-1-[(2S)-2-Cyclohexyl-2-[(2S)-2-(methylamino)propanamido]acetyl]-N-[(1R)-5-[4-[(5R)-5-[(2S)-1-[(2S)-2-cyclohexyl-2-[(2S)-2-(methylamino)propanamido]acetyl]pyrrolidine-2-amido]-5,6,7,8-tetrahydronaphthalen-1-yl]piperazin-1-yl]-1,2,3,4-tetrahydronaphthalen-1-yl]pyrrolidine-2-carboxamide]",0.01 to 0.1 µM,0.0001 to 0.01 µM,0.01 to 0.1 µM
"CN[C@@H](C)C(=O)N[C@H](C(=O)N1CCC[C@H]1C(=O)N[C@@H]1CCCc2c1cccc2N1CCN(c2cccc3c2CCC[C@H]3NC(=O)[C@@H]2CCCN2C(=O)[C@@H](NC(=O)[C@H](C)NC)C(C)(C)C)CC1)C(C)(C)C [Compound I-A, (2S,2′S,29S,34S)—N, N′-((1R,1′R)-5,5′-(Piperazine-1,4-diyl)bis(1,2,3,4-tetrahydronaphthalene-5,1-diyl))bis(1-((S)-3,3-dimethyl-2-((S)-2-(methylamino)propanamido)butanoyl)pyrrolidine-2-carboxamide)]",0.1 to 1 µM,0.0001 to 0.01 µM,0.01 to 0.1 µM
"CC[C@H](NC(=O)[C@H](C)NC)C(=O)N1CCC[C@H]1C(=O)N[C@@H]1CCCc2c1cccc2N1CCN(c2cccc3c2CCC[C@H]3NC(=O)[C@@H]2CCCN2C(=O)[C@H](CC)NC(=O)[C@H](C)NC)CC1 [Compound I-B, (2S)-1-[(2S)-2-[(2S)-2-(Methylamino)propanamido]butanoyl]-N-[(1R)-5-[4-[(5R)-5-[(2S)-1-[(2S)-2-[(2S)-2-(methylamino)propanamido]butanoyl]pyrrolidine-2-amido]-5,6,7,8-tetrahydronaphthalen-1-yl]piperazin-1-yl]-1,2,3,4-tetrahydronaphthalen-1-yl]pyrrolidine-2-carboxamide]",0.1 to 1 µM,0.0001 to 0.01 µM,0.01 to 0.1 µM
"CN[C@@H](C)C(=O)N[C@H](C(=O)N1CCC[C@H]1C(=O)N[C@@H]1CCCc2c1cccc2N1CCN(c2cccc3c2CCC[C@H]3NC(=O)[C@@H]2CCCN2C(=O)[C@@H](NC(=O)[C@H](C)NC)C(C)C)CC1)C(C)C [Compound I-C, (S)-1-((S)-3-Methyl-2-((S)-2-(methylamino)propanamido)butanoyl)-N—((R)-5-(4-((R)-5-((S)-1-((S)-3-methyl-2-((S)-2-(methylamino)propanamido)butanoyl)pyrrolidine-2-carboxamido)-5,6,7,8-tetrahydronaphthalen-1-yl)piperazin-1-yl)-1,2,3,4-tetrahydronaphthalen-1-yl)pyrrolidine-2-carboxamide]",0.01 to 0.1 µM,0.0001 to 0.01 µM,0.01 to 0.1 µM
"CN[C@@H](C)C(=O)N[C@H](C(=O)N1C[C@@H](OCCCN2CCN(CCCO[C@H]3C[C@@H](C(=O)N[C@@H]4CCCc5ccccc54)N(C(=O)[C@@H](NC(=O)[C@H](C)NC)C4CCCCC4)C3)CC2)C[C@H]1C(=O)N[C@@H]1CCCc2ccccc21)C1CCCCC1 [Compound II, (2S,4S)-1-[(2S)-2-Cyclohexyl-2-[(2S)-2-(methylamino)propanamido]acetyl]-4-[3-[4-(3-[[(3S,5S)-1-[(2S)-2-cyclohexyl-2-[(2S)-2-(methylamino)propanamido]acetyl]-5-[[(1R)-1,2,3,4-tetrahydronaphthalen-1-yl]carbamoyl]pyrrolidin-3-yl]oxy]propyl)piperazin-1-yl]propoxy]-N-[(1R)-1,2,3,4-tetrahydronaphthalen-1-yl]pyrrolidine-2-carboxamide]",0.01 to 0.1 µM,0.0001 to 0.01 µM,0.01 to 0.1 µM
"CN[C@@H](C)C(=O)N[C@@H](C)C(=O)N1C[C@@H](OCCCN2CCN(CCCO[C@H]3C[C@@H](C(=O)N[C@@H]4CCCc5ccccc54)N(C(=O)[C@H](C)NC(=O)[C@H](C)NC)C3)CC2)C[C@H]1C(=O)N[C@@H]1CCCc2ccccc21 [Compound II-A, (2S,4S)-1-[(2S)-2-[(2S)-2-(Methylamino)propanamido]propanoyl]-4-{3-[4-(3-{[(3S,5S)-1-[(2S)-2-[(2S)-2-(methylamino)propanamido]propanoyl]-5-{[(1R)-1,2,3,4-tetrahydronaphthalen-1-yl]carbamoyl}pyrrolidin-3-yl]oxy}propyl)piperazin-1-yl]propoxy}-N-[(1R)-1,2,3,4-tetrahydronaphthalen-1-yl]pyrrolidine-2-carboxamide]",0.1 to 1 µM,0.0001 to 0.01 µM,0.01 to 0.1 µM
"CC[C@H](NC(=O)[C@H](C)NC)C(=O)N1C[C@@H](OCCCN2CCN(CCCO[C@H]3C[C@@H](C(=O)N[C@@H]4CCCc5ccccc54)N(C(=O)[C@H](CC)NC(=O)[C@H](C)NC)C3)CC2)C[C@H]1C(=O)N[C@@H]1CCCc2ccccc21 [Compound II-B, (2S,4S)-1-[(2S)-2-[(2S)-2-(Methylamino)propanamido]butanoyl]-4-{3-[4-(3-{[(3S,5S)-1-[(2S)-2-[(2S)-2-(methylamino)propanamido]butanoyl]-5-{[(1R)-1,2,3,4-tetrahydronaphthalen-1-yl]carbamoyl}pyrrolidin-3-yl]oxy}propyl)piperazin-1-yl]propoxy}-N-[(1R)-1,2,3,4-tetrahydronaphthalen-1-yl]pyrrolidine-2-carboxamide]",0.01 to 0.1 µM,0.0001 to 0.01 µM,0.0001 to 0.01 µM
"CN[C@@H](C)C(=O)N[C@H](C(=O)N1C[C@@H](OCCCN2CCN(CCCO[C@H]3C[C@@H](C(=O)N[C@@H]4CCCc5ccccc54)N(C(=O)[C@@H](NC(=O)[C@H](C)NC)C(C)C)C3)CC2)C[C@H]1C(=O)N[C@@H]1CCCc2ccccc21)C(C)C [Compound II-C, (2S,4S)-1-[(2S)-3-Methyl-2-[(2S)-2-(methylamino)propanamido]butanoyl]-4-{3-[4-(3-{[(3S,5S)-1-[(2S)-3-methyl-2-[(2S)-2-(methylamino)propanamido]butanoyl]-5-{[(1R)-1,2,3,4-tetrahydronaphthalen-1-yl]carbamoyl}pyrrolidin-3-yl]oxy}propyl)piperazin-1-yl]propoxy}-N-[(1R)-1,2,3,4-tetrahydronaphthalen-1-yl]pyrrolidine-2-carboxamide]",0.0001 to 0.01 µM,0.0001 to 0.01 µM,0.0001 to 0.01 µM
"CN[C@@H](C)C(=O)N[C@H](C(=O)N1C[C@@H](OCCCN2CCN(CCCO[C@H]3C[C@@H](C(=O)N[C@@H]4CCCc5ccccc54)N(C(=O)[C@@H](NC(=O)[C@H](C)NC)C(C)(C)C)C3)CC2)C[C@H]1C(=O)N[C@@H]1CCCc2ccccc21)C(C)(C)C [Compound II-D, (2S,4S)-1-[(2S)-3,3-Dimethyl-2-[(2S)-2-(methylamino)propanamido]butanoyl]-4-[3-[4-(3-[[(3S,5S)-1-[(2S)-3,3-dimethyl-2-[(2S)-2-(methylamino)propanamido]butanoyl]-5-[[(1R)-1,2,3,4-tetrahydronaphthalen-1-yl]carbamoyl]pyrrolidin-3-yl]oxy]propyl)piperazin-1-yl]propoxy]-N-[(1R)-1,2,3,4-tetrahydronaphthalen-1-yl]pyrrolidine-2-carboxamide]",0.01 to 0.1 µM,0.0001 to 0.01 µM,0.01 to 0.1 µM
"CN[C@@H](C)C(=O)N[C@H](C(=O)N1C[C@@H](OCCCN2CCN(CCCO[C@H]3C[C@@H](C(=O)N[C@@H]4CCCc5ccccc54)N(C(=O)[C@@H](NC(=O)[C@H](C)NC)C4CC4)C3)CC2)C[C@H]1C(=O)N[C@@H]1CCCc2ccccc21)C1CC1 [Compound II-F, (2S,4S)-1-[(2S)-2-Cyclopropyl-2-[(2S)-2-(methylamino)propanamido]acetyl]-4-[3-[4-(3-[[(3S,5S)-1-[(2S)-2-cyclopropyl-2-[(2S)-2-(methylamino)propanamido]acetyl]-5-[[(1R)-1,2,3,4-tetrahydronaphthalen-1-yl]carbamoyl]pyrrolidin-3-yl]oxy]propyl)piperazin-1-yl]propoxy]-N-[(1R)-1,2,3,4-tetrahydronaphthalen-1-yl]pyrrolidine-2-carboxamide]",0.1 to 1 µM,0.0001 to 0.01 µM,0.01 to 0.1 µM
